# In patent US10799467B2, “Use of the phytocannabinoid cannabidivarin (CBDV) in the treatment of epilepsy” (GW Pharma Limited, priority 2010, dated 2020):
# Where two headings read alike, the source gives them in different places. Marks after values point to notes of the source that are not given here.
# Assays:
# [1] = cited from earlier work
# PTZ-induced seizures [2] = test: PTZ model of generalised seizures (80 mg/kg PTZ); format: in vivo, Wistar rats; details: for Median severity: vehicle 4.25; for % no seizure: vehicle 12.5; for mortality rate: vehicle 44%, not significant
# Protocol: Male Wistar rats (P24-29; 75-110 g) were used to assess the effects of the phytocannabinoid CBDV in the PTZ model of generalised seizures. Animals were habituated to the test environment, cages, injection protocol and handling prior to experimentation. Animals were housed in a room at 21° C. on a 12 hour light: dark cycle (lights on 0900) in 50% humidity, with free access to food and water.
# Five 6 L Perspex tanks with lids were placed on a single bench with dividers between them. Closed-circuit television (CCTV) cameras were mounted onto the dividers to observe rat behaviour. Sony Topica CCD cameras (Bluecherry, USA) were linked via BNC cables to a low-noise PC via Brooktree digital capture cards (Bluecherry, USA). Zoneminder (http://www.zoneminder.com) software was used to monitor rats, start and end recordings and manage video files. In-house Linux scripts were used to encode video files into a suitable format for further offline analysis using The Observer (Noldus Technologies).
# A range of doses of PTZ (50-100 mg/kg body weight) were used to determine the best dose for induction of seizures (see below). As a result, a dose of 80 mg/kg injected intra-peritoneally (IP; stock solution 50 mg/ml in 0.9% saline) were used to screen the CBDV.
# On the day of testing, pure CBDV was administered via intra-peritoneal (i.p.) injection at doses of 50, 100 and 200 mg/kg alongside animals that were injected with a matched volume of the cannabinoid vehicle (2:1:17 ethanol:Cremophor: 0.9% w/v NaCl solution), which served as the negative control group. Animals were then observed for 1 hour, after which time they received an IP injection of 80 mg/kg PTZ. Negative vehicle controls were performed in parallel with cannabinoid-dosed subjects. After receiving a dose of PTZ, animals were observed and videoed to determine the severity of seizure and latency to several seizure behaviour types (see in vivo analysis, below). Animals were filmed for half an hour after last sign of seizure, and then returned to their cage.
# Animals were observed during experimental procedures, but all analysis was performed offline on recorded video files using The Observer behavioural analysis software (Noldus, Netherlands). A seizure severity scoring system was used to determine the levels of seizure experienced by subjects (Pohl & Mares, 1987). All signs of seizure were detailed for all animals.
# The latency (in seconds) from injection of PTZ to first myoclonic jerk (FMJ; score of 1), and to the animal attaining “forelimb clonus with tonic component and body twist” (score of 3.5) were recorded. FMJ is an indicator of the onset of seizure activity, whilst >90% of animals developed scores of 3.5, and so is a good marker of the development of more severe seizures. Data are presented as the mean±S.E.M. within an experimental group.
# This is given as the median value for each experimental group based on the scoring scale below.
# The percentage of animals within an experimental group that died as a result of PTZ-induced seizures. Note that the majority of animals that developed tonic-clonic seizures (scores of 4 and 5) died as a result, and that a score of 6 (death) automatically denotes that the animal also experienced tonic-clonic seizures.
# This is given as the mean±S.E.M. for each experimental group.
# For measures of latency and severity, one way analysis of variance (ANOVA) was performed on the four groups together (vehicle and 50, 100 and 200 mg/kg CBDV) to detect overall effects of CBDV (p≤0.05 considered significant).
# Significant ANOVA results were followed by post hoc tests to test differences between vehicle and drug groups (Tukey's test, p≤0.05 considered significant).
# Methodology as described in Example 2.
# General methodology is as described in Example 2.
# Three doses of THCV BDS were assessed against a concentration of PTZ known to induce moderate seizures in rats (70 mg/kg; see pilot, above). […]
# CB1 receptor = CB1 receptor (Homo sapiens, UniProt P21554); details: cited from earlier work
# PTZ-induced seizures [3] = test: CBDV with standard anti-epileptic drugs in the PTZ model of generalised seizures; format: in vivo, Wistar rats; details: valproate (varying doses) co-administered with CBDV 200 mg/kg
# Protocol: As described in Example 2 above. Varying doses of the SAED's ethosuximide and valproate were tested in combination to isolated CBDV at a dose of 200 mg/kg.
# [4] = test system: pilocarpine-induced seizures; test: CBDV with standard anti-epileptic drugs in the pilocarpine model of epilepsy; format: in vivo; details: CBDV 200 mg/kg with valproate at various doses
# From the text: These two drugs are representative of two classes of anti-convulsants which have different mechanisms of action.
# MES-induced seizure = test: Maximal electroshock seizure (MES) model of epilepsy; format: in vivo, Mouse/ICR
# Protocol: The vehicle used in this study was 2:1:17 (ethanol:Cremophor:0.9% ^w/v, NaCl). The test compounds used were cannabidiol (CBD) and cannabidivarin (CBDV). These were made to a solution at the highest concentration; these were then dissolved in ethanol before combination with Cremophor and 0.9% NaCl in the proportion described above. The CBD or CBDV were administered intraperitoneally at a volume of 10 ml/kg body weight. The SAED valproic acid (VBA) was dissolved in saline.
# Animal Species/Strain: Mouse/ICR, Microbiological grade: SPF, Supplier: SLC Japan, Inc. […] Temperature: 23±2° C., Humidity: 60±10%, Light conditions: 7 AM to 7 PM for the light period, 7 PM to 7 AM for the dark period. Chow and water: Free access to CRF-1 (Oriental Yeast Co, Ltd) and tap water.
# One day before each experiment, mice were weighed and randomized into several groups in each test. On the morning of the experiment day, body weight was measured in order to calculate the administration volume of each animal. Vehicle, CBD, CBDV or valproic acid sodium salt was interperitoneally administered 30 minutes before electric stimuli. Maximal electroshock seizures (MES) in mice was induced by a stimulator (UGO BASILE ECT UNIT 7801, Italia) using a current of 30 mA delivered with a pulse frequency of 100 Hz for 200 msec through earlap electrodes.
# All statistical analyses were performed using SAS Software for Windows, Release 9.1 (SAS Institute Japan). The difference of the number (hindlimb extension or deaths) in each group was assessed using two-tailed Fisher's exact test.
# grand mal seizures = details: 200-300 mg of cannabidiol plus regular medication; Cunha et al (1980); cited from earlier work
# seizure frequency [5] = details: 200-300 mg of cannabidiol per day in addition to standard antiepileptic drugs; 12 patients; cited from earlier work
# seizure frequency [6] = details: 900-1200 mg of cannabidiol a day for 10 months; single patient; cited from earlier work
# CB2 receptor = CB2 receptor (Homo sapiens, UniProt P34972); details: WO 2007/138322; cited from earlier work
# [7] = rats; WO 2007/138322; cited from earlier work
# seizures = details: THC administered to 5 institutionalized children not responding to phenobarbital and phenytoin; cited from earlier work
# [8] = rats at doses greater than 200 mg/kg
# CB1 receptor, sequence (P21554 whole entry): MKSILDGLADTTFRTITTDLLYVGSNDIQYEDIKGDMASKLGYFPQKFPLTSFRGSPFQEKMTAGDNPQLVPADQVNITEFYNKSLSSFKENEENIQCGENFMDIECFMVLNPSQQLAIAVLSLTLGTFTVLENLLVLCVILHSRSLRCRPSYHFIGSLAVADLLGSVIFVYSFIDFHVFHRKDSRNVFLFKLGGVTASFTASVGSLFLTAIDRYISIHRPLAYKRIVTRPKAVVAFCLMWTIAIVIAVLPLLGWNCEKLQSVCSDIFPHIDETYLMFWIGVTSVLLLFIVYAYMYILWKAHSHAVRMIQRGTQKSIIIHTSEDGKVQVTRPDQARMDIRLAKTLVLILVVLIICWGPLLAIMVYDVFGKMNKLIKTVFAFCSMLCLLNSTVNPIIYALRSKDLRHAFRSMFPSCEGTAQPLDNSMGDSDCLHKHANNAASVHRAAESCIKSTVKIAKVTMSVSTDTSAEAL
# CB2 receptor, sequence (P34972 whole entry): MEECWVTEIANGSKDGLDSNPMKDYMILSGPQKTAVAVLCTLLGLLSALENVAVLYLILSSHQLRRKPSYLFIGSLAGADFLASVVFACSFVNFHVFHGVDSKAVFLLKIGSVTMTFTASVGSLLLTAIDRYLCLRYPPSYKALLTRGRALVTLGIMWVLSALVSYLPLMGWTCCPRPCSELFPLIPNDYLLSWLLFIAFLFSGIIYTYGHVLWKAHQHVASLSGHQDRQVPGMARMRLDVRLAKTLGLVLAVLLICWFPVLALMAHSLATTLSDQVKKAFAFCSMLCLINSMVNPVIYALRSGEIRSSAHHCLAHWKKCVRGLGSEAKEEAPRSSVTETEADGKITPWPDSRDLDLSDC
structure (smiles),measurement,setting,value
CCC1(c2ccccc2)C(=O)NC(=O)NC1=O [phenobarbital],motor and other side effects,[1]; rat models of epilepsy at doses greater than 250 mg/kg,notable motor and other side effects (including sedation)
"CCCc1cc(O)c2c(c1)OC(C)(C)[C@@H]1CCC(C)=C[C@@H]21 [THCV, tetrahydrocannabivarin]",Median severity,"PTZ-induced seizures [2]; 0.025 mg/kg THCV, 80 mg/kg PTZ",3.5
same,% no seizure,"PTZ-induced seizures [2]; 0.025 mg/kg THCV, 80 mg/kg PTZ",5.9%
same,Median severity,"PTZ-induced seizures [2]; 0.25 mg/kg THCV, 80 mg/kg PTZ",3.5
same,% no seizure,"PTZ-induced seizures [2]; 0.25 mg/kg THCV, 80 mg/kg PTZ",33.3%
same,Median severity,"PTZ-induced seizures [2]; 2.5 mg/kg THCV, 80 mg/kg PTZ",3.5
same,% no seizure,"PTZ-induced seizures [2]; 2.5 mg/kg THCV, 80 mg/kg PTZ",18.8%
same,mortality rate,"PTZ-induced seizures [2]; high (2.5 mg/kg) pure THCV, 80 mg/kg PTZ",38%
same,latency to score of [5] vs vehicle,"PTZ-induced seizures [2]; highest dose of THCV (2.5 mg/kg), 80 mg/kg PTZ, p=0.013","increased latencies, reaching a significant level"
same,latency to score of [3] vs vehicle,"PTZ-induced seizures [2]; highest dose of THCV (2.5 mg/kg), 80 mg/kg PTZ, p=0.017","increased latencies, reaching a significant level"
same,latency to first manifestation of seizure-like behaviour vs vehicle,"PTZ-induced seizures [2]; highest dose of THCV (2.5 mg/kg), 80 mg/kg PTZ, p=0.02",delay of onset was significant
same,mortality rate,"PTZ-induced seizures [2]; low (0.025 mg/kg) pure THCV, 80 mg/kg PTZ",41%
same,mortality rate,"PTZ-induced seizures [2]; medium (0.25 mg/kg) pure THCV, 80 mg/kg PTZ",33%
same,duration of PTZ-induced seizures in animals that survived vs vehicle,"PTZ-induced seizures [2]; medium dose of THCV (0.25 mg/kg), 80 mg/kg PTZ, p=0.03",significantly shorter
same,activity at the CB1 receptor,CB1 receptor,antagonist
"CCCC(CCC)C(=O)O [Valproic acid, valproic acid, reference compound]",mortality (independent effect when co-administered),PTZ-induced seizures [3],significant decreases
same,onset latency (independent effect when co-administered),PTZ-induced seizures [3],significant decreases
same,seizure severity (independent effect when co-administered),PTZ-induced seizures [3],significant decreases
same,mortality (independent effect),[4],only CBDV and not valproate independently caused a significant decrease
same,seizure severity (independent effect),[4],independent and positive effects
same,Incidence of Tonic convulsion,"MES-induced seizure; 200 mg/kg i.p., Table 10.2, 10 mice per group, vehicle 9/10",5/10
same,Incidence of Tonic convulsion,"MES-induced seizure; 350 mg/kg i.p., Table 10.1, 5 mice per group, vehicle 5/5",0/5**
same,Incidence of Tonic convulsion,"MES-induced seizure; 350 mg/kg i.p., Table 10.2, 10 mice per group, vehicle 9/10",1/10**
same,hindlimb extension vs vehicle group,"MES-induced seizure; 350 mg/kg valproic acid, statistically significant",blocked
same,motor and other side effects,[1]; [8],notable motor and other side effects (including sedation)
"C=C(C)[C@@H]1CCC(C)=C[C@H]1c1c(O)cc(CCCCC)cc1O [CBD, cannabidiol]",animals that died,"PTZ-induced seizures [2]; 100 mg/kg CBD IP 60 minutes before 80 mg/kg PTZ, vehicle 46.7%, p<0.001",6.7%
same,animals that experienced the most severe seizures (score of 5),"PTZ-induced seizures [2]; 100 mg/kg CBD IP, 80 mg/kg PTZ, vehicle 53.3%, p<0.001",6.7%
same,latency of seizure development,"PTZ-induced seizures [2]; CBD 1, 10 and 100 mg/kg IP, 80 mg/kg PTZ",no significant increases
same,Incidence of Tonic convulsion,"MES-induced seizure; 3 mg/kg i.p., Table 10.1, 5 mice per group, vehicle 5/5",3/5
same,Incidence of Tonic convulsion,"MES-induced seizure; 10 mg/kg i.p., Table 10.1, 5 mice per group, vehicle 5/5",4/5
same,Incidence of Tonic convulsion,"MES-induced seizure; 30 mg/kg i.p., Table 10.1, 5 mice per group, vehicle 5/5",3/5
same,Incidence of Tonic convulsion,"MES-induced seizure; 100 mg/kg i.p., Table 10.1, 5 mice per group, vehicle 5/5",4/5
same,inhibition of the expression of hindlimb extension with statistical significance,MES-induced seizure; CBD 3-100 mg·kg IP,not able to inhibit
same,patients who remained unchanged,grand mal seizures,1
same,patients who showed complete improvement,grand mal seizures,3
same,patients who showed minor improvement,grand mal seizures,2
same,patients who showed partial improvement,grand mal seizures,2
same,unwanted effect,grand mal seizures,mild sedation
same,improvement in seizure frequency,seizure frequency [5],no significant improvement
same,seizure frequency,seizure frequency [6],markedly reduced
same,activity at the CB1 receptor,CB1 receptor,inverse agonists
same,activity at the CB2 receptor,CB2 receptor,inverse agonists
same,bodyweight,[7],reduced
"CCCCCc1cc(O)c2c(c1)OC(C)(C)[C@@H]1CCC(C)=C[C@@H]21 [THC, tetrahydrocannabinol]",seizure outcome in 5 children,seizures,"One became entirely free of seizures, one became almost completely free of seizures, and the other three did no worse than before"
CCC1(C)CC(=O)NC1=O (stereo not drawn) [ethosuximide],motor and other side effects,[1]; [8],notable motor and other side effects (including sedation)
